Read-outs that look alike come from different tables or passages of the source.
Columns and labels:
H460 cells [1] = assay: Cell proliferation assay (MTT); format: cell-based, human
Description: All cell lines used in this study were maintained under standard conditions of temperature (37° C.), humidity (95%), and carbon dioxide (5%). Human primary bronchial epithelial cells, NHBE (BEC) (Cambrex, CC-2541) were grown in BEGM (Bronchial Epithelial cell growth media) BulletKit (Cambrex, CC-3170). Human primary mammary epithelial cells, HMEC (Clonetics, CC-2551) were grown in MEBM medium supplemented with a bullet kit (Clonetics, CC-3150). Epithelial non-small lung cancer cells H460 and H1299, and small cell lung cancer cell lines H510 and H82 were maintained in RPMI supplemented with 10% Fetal Bovine Serum (FBS) (Life Technologies, Grand Island, N.Y.).
(§1) Cells were seeded on 96-well plates (BD, Falcon, Bioscience, San Jose, Calif., USA) at a density of 6000 cells/well, and incubated for 24 h under standard conditions. Then, cells were treated with different concentrations of the ChoK inhibitors (quadruplicates of each concentration) and maintained for 72 hours. […] Absorbance is read at 595 nm in a VersaMax Microplate Reader (Molecular Devices, Sunnyvale, Calif., USA). For sensitization with acid ceramidase inhibitor, cells were pre-treated […] with the correspondent IC50 for NOE before treatment with ChoK inhibitors. NOE (N-Oleoyl ethanolamine) was obtained from Calbiochem (La Jolla, Calif., USA).
Thus, disruption in the levels of acid ceramidase may allow ChoK inhibitors to have a better effect in these cells. To verify this hypothesis, we used the previously characterized acid ceramidase inhibitor, N-Oleoylethanolamine (NOE) (Grijalvo S., Chem Phys Lipids. 2006; 144:69-84), to investigate if the inhibition of acid ceramidase sensitizes tumour cell lines to ChoK inhibitors. To that end, H460 cells were pre-treated with NOE for three hours to inhibit acid ceramidase.
H460 cells were pre-treated with these compounds for three hours to inhibit ceramidases. […] Furthermore, the combined use of ChoK inhibitors and acid ceramidase inhibitors provides a further stronger anticancer activity.

[2] = test system: primary cultures of tumours of patients with NSCLC; assay: Primary cultures of NSCLC tumours, crystal violet quantification; format: cell-based, human; conditions: primary NSCLC tumour cultures, 0-20 μM, 10 days
Description: Resected tissues from NSCLC patients were dissociated (Cell dissociation sieve-tissued grinder Kit CD1, SIGMA), and the obtained cells were seeded in 24 well plates (BD, Falcon, Bioscience, San Jose, Calif., USA). […] The final persistent population in each well was quantified by the method of Cristal Violet as previously described (Rodríguez-González, A. et al., Oncogene, 22:8803-8812). […]

H460 MN58R cells = assay: Cell proliferation assay (MTT); format: cell-based, human
Description: (§2) Cell lines resistant to MN58b and RSM-932A (identified as MN58R and RSM-932A-R, respectively) were generated by prolonged continuous exposure to increasing concentrations of each drug. A parallel control (H460 stock) of the cell line in the absence of the compounds was kept in culture for the same time.
as §1
(§3) To further study the mechanism underlying resistance to ChoK inhibition, as well as the implication of acid ceramidase in this effect, we used the human NSCLC-derived H460 cell line for a set of in vitro experiments. Maintaining this cell line in culture for 9 months with slightly increasing doses cycles of MN58b and a second-generation ChoKα inhibitor, RSM-932A, we established new cell lines with acquired resistance to these ChoKα inhibitors. A control cell line (H460 stock) was also established maintaining H460 in culture for the same time without treatment. Thus, established cells resistant to MN58b (H460 MN58R) and resistant to RSM-932A (H460 RSM-932A-R) were not affected at concentrations where normal H460 cells or control H460stock cells were dramatically affected. […] Furthermore, we found a strong cross-resistance between both ChoK inhibitors as it could be expected due to the similar mechanisms of action of these two antitumoral drugs (Table 9).

H460 RSM-932AR cells = assay: Cell proliferation assay (MTT); format: cell-based, human
Description: as §2, §1, §3

H460stock cells = assay: Cell proliferation assay (MTT); format: cell-based, human
Description: as §2, §1, §3

H460 xenografts = assay: NSCLC xenografts, in vivo tumor growth inhibition
Description: Indicated cells were resuspended in DMEM just before inoculation (10^6 cells/0.1 ml), and injected subcutaneously in nu/nu immunosuppressed mice. Mice were kept under standard laboratory conditions according to the guidelines of the Spanish Government. When tumours reached a mean volume of 0.1 cm^3, mice were randomized to control and treated groups. Treatments with the antitumoral agents (and vehicle for control mice) were performed i.p. with following the indicated schedules. Tumors were monitored three times a week by measuring the major (D) and minor (d) diameters, and tumour volume was calculated by V=(D*d^2)/2. Statistical analysis of significant changes in tumour growth was calculated using SPSS software v. 13.0.

H460 cells [3] = assay: Affymetrix gene expression analysis of 5-FU metabolization pathway; format: cell-based, human; design: key to RRM2 (Ribonucleotide Reductase) gene expression / TYMS (Thymidylate synthetase) gene expression / DUT (Deoxyuridine triphosphatase) gene expression: Signal Log Ratio, base 2 (1.0 = 2-fold increase, 0 = no change)
Description: The RNAs from the biopsies selected were isolated for microarrays and QT-PCR, using RNeasy Mini Kit (QIAGEN, Hilden, Germany) following the instructions of the manufactures. Samples were prepared and the array hybridized according to the Affymetrix GeneChip Expression Analysis Technical Manual. Hybridization to Affymetrix U133plus2 GeneChips (54,614 probe sets, representing 47,000 transcripts), staining, washing and scanning procedures were carried out at the Genomic Facility in the National Center of Biotechnology (Madrid, Spain) as described in www.affymetrix.com (Affymetrix, Santa Clara, Calif.). The Signal Log Ratio estimates the magnitude and direction of change of a transcript. The log scale used is base 2, thus a Signal Log Ratio of 1.0 indicates an increase of the transcript level by 2 fold and −1.0 indicates a decrease by 2 fold. A Signal Log Ratio of zero would indicate no change.
With the aim of further investigating the mechanism of ChoKIs sensitization to the antitumoral effect of 5-FU, a gene expression analysis of the 5-FU-metabolisation pathway was performed in H460 cells treated at different times with MN58b and RSM-932A using affymetrix technology.

DLD-1 colon cancer cells = assay: QT-PCR validation of 5-FU metabolization pathway genes; format: cell-based, human; design: key: DR (Down-regulation); UR (Up-regulation)
Description: (§4) 1 μg of RNA was used to generate cDNA using High-Capacity cDNA Archive Kit (Applied Biosystems), and quantitative real-time PCR was carried out in triplicate using the ABI PRISM 7700 Sequence Detector (Applied Biosystems). GAPDH and 18S ribosomal mRNA were amplified as internal controls. Probes used for amplification were from Applied Biosystems as Taqman Gene Expression Assays (ASAH1: HS00602774—M1 Taqman Probe, ASAH2: HS00184096_M1 Taqman Probe and ASAH3: HS00370322_M1 Taqman Probe, DUT: HS00798995_S1 Taqman Probe, TYMS: HS00426591_M1 Taqman Probe, UPP1: HS00427695—M1 Taqman Probe, RRM2: HS00357247_G1 Taqman Probe). The 2-^ΔΔCt method was used (Livak K J., Methods. 2001; 25:402-8) to calculate the relative expression of each gene.

HT29 colon cancer cells = assay: as above; format: cell-based, human; design: key: DR (Down-regulation); UR (Up-regulation)
Description: as §4

SW62 colon cancer cells = assay: as above; format: cell-based, human; design: key: DR (Down-regulation); UR (Up-regulation)
Description: as §4

SW620 cells = assay: MTT cytotoxicity, ChoKI and TRAIL
Description: For this purpose, cells were seeded in 96 multiwell plates at a density of 1×10^4 cells/well 24 hours before treatment. Cells were treated with different concentrations of RSM-932A (ChoKI) or TRAIL for different times and the cell proliferation was quantified using the MTT [3-(4,5-Dimethylthiazol-2-yl)-2,5-Diphenyltetrazolium Bromide] colorimetric assay.

DLD-1 cells = assay: Apoptosis detection by flow cytometry, Annexin V & IP; format: cell-based, human; conditions: DLD-1, 7 hours treatment
Description: Cell death was analysed by flow cytometry using de Aposcreen Annexin V Apoptosis Kit (Southern Biotech) according to manufacturer procedures. Cells were seeded at 4×10^5 cells per well in six-well. Twenty-four hours later, cells were treated with the indicated compounds. Cells were rinsed twice in cold PBS and after removing it cells were resuspended in cold 1× binding buffer to a concentration from 1×10^6 to 1×10^7 cells/mL. 100 μl of these cells were collected in a flow cytometry tube and 10 μl of Annexin V were added. After gently vortexing, tubes were incubated for 15 minutes on ice, protected from light. Without washing, 380 μl of 1× binding buffer were added to each sample prior to 10 μl of propidium iodine. Cells were immediately analysed by flow cytometry.
The synergism observed in vitro was also analysed by flow cytometry using Annexin V & IP staining to distinguish between apoptosis and necrosis or late apoptosis. […] When DLD-1 cells are treated with TRAIL alone there is a 35% of apoptosis. In combination tumour cell death is amplified up to 50%. When DLD-1 are treated with RSM-932A (TCD-717) in combination with TRAIL there is a 55% increase in tumour cell death but mainly the necrotic or late apoptosis population because RSM-932A (TCD-717) has an effect that is faster than MN58. […]

[4] = FIG. 7B, combination given sequentially

CCCCCCCCCCCCCC(=O)N[C@H](CO)[C@H](O)c1ccc([N+](=O)[O-])cc1 [CAY, (1R,2R)-N-myristoylamino-4′-nitro-phenylpropandio1-1,3, reference compound]
IC 50 (H460 cells [1]; Homo sapiens, NCI-H460, combinations: pre-treated with ceramidase inhibitor for three hours, then ChoK inhibitor, read-out: IC50 (72 h)): 28 µM

N.N.[Cl][Pt][Cl] [Cisplatin, cisplatin, reference compound]
RESISTANT (% of samples) [2]: 50% | RESISTANT (number of samples) [2]: 31 | SENSITIVES (% of samples) [2]: 50% | SENSITIVES (number of samples) [2]: 31 | IC 50 (H460 cells [1]): 5 µg/mL | IC 50 (H460 MN58R cells): 2 µg/mL | IC 50 (H460 RSM-932AR cells): 1.5 µg/mL | IC 50 (H460stock cells): 4.5 µg/mL | Statistical significance (p), tumour growth (H460 xenografts; FIG. 7A, single agents): 0.3 | Statistical significance (p), tumour growth (H460 xenografts; [4]): 0.441

CCCCCCCCCCCCCC(=O)N[C@H](C)[C@@H](O)c1ccccc1 [DEM, (1S,2R)-N-myristoylamino-phenylpropanol-1, reference compound]
IC 50 (H460 cells [1]; combinations: pre-treated with ceramidase inhibitor for three hours, then ChoK inhibitor, read-out: IC50 (72 h)): 31 µM

Nc1ccn([C@@H]2O[C@H](CO)[C@@H](O)C2(F)F)c(=O)n1 [Gemcitabine, gemcitabine]
RESISTANT (number of samples) [2]: 34 | SENSITIVES (number of samples) [2]: 18

CN(c1ccc(Cl)cc1)c1cc[n+](Cc2ccc(-c3ccc(C[n+]4ccc(N(C)c5ccc(Cl)cc5)c5ccccc54)cc3)cc2)c2ccccc12.[Br-].[Br-] [RSM-932A, 1,1′-(biphenyl-4, 4′-diylmethylene) bis[4-(4-chloro-N-methylanilino-)quinolinium]dibromide]
Statistical significance (p), tumour growth (H460 xenografts; [4]): 0.157 | DUT (Deoxyuridine triphosphatase) gene expression (H460 cells [3]; H460, 9 h): −1.12 | RRM2 (Ribonucleotide Reductase) gene expression (H460 cells [3]; H460, 9 h): −1.39 | TYMS (Thymidylate synthetase) gene expression (H460 cells [3]; H460, 9 h): −1.03 | UPP1 (Uridine phosphorylase 1) gene expression (H460 cells [3]; H460, 9 h): +1.83 | DUT (Deoxyuridine triphosphatase) gene expression (H460 cells [3]; H460, 24 h): −2.08 | RRM2 (Ribonucleotide Reductase) gene expression (H460 cells [3]; H460, 24 h): −3.69 | TYMS (Thymidylate synthetase) gene expression (H460 cells [3]; H460, 24 h): −2.73 | UPP1 (Uridine phosphorylase 1) gene expression (H460 cells [3]; H460, 24 h): +2.48 | DUT expression (DLD-1 colon cancer cells): DR | RRM expression (DLD-1 colon cancer cells): DR | TYM expression (DLD-1 colon cancer cells): DR | UPP expression (DLD-1 colon cancer cells): UR | DUT expression (HT29 colon cancer cells): DR | RRM expression (HT29 colon cancer cells): DR | TYM expression (HT29 colon cancer cells): DR | UPP expression (HT29 colon cancer cells): UR | DUT expression (SW62 colon cancer cells): DR | RRM expression (SW62 colon cancer cells): DR | TYM expression (SW62 colon cancer cells): DR | UPP expression (SW62 colon cancer cells): UR | cytotoxicity, percentage of cell death (SW620 cells; SW620, combination: ChoKI pre-treatment 2 hours, then TRAIL 24 h): 9%

CC(=O)O[C@H]1C(=O)[C@@]2(C)[C@H]([C@H](OC(=O)c3ccccc3)[C@]3(O)C[C@H](OC(=O)[C@H](O)[C@@H](NC(=O)c4ccccc4)c4ccccc4)C(C)=C1C3(C)C)[C@]1(OC(C)=O)CO[C@@H]1C[C@@H]2O [Taxol]
RESISTANT (number of samples) [2]: 35 | SENSITIVES (number of samples) [2]: 27

CCC1=C[C@@H]2CN(C1)Cc1c([nH]c3ccccc13)[C@@](C(=O)OC)(c1cc3c(cc1OC)N(C)[C@H]1[C@@](O)(C(=O)OC)[C@H](OC(C)=O)[C@]4(CC)C=CCN5CC[C@]31[C@@H]54)C2 [Vinolrelbine, vinorelbine]
RESISTANT (number of samples) [2]: 24 | SENSITIVES (number of samples) [2]: 15

B1: TRAIL: extracellular domain of human TRAIL (amino acids 95-281) (protein, listed as Homo sapiens)
chain: TSEETISTVQEKQQNISPLVRERGPQRVAAHITGTRGRSNTLSSPNSKNEKALGRKINSWESSRSGHSFLSNLHLRNGELVIHEKGFYYIYSQTYFRFQEEIKENTKNDKQMVQYIYKYTSYPDPILLMKSARNSCWSKDAEYGLYSIYQGGIFELKENDRIFVSVTNEHLIDMDHEASFFGAFLVG
apoptosis (DLD-1 cells): 35% | sensitivity to TRAIL (SW620 cells; SW620, FIG. 8B): nearly resistant

— patent publication US20110256241A1, “METHODS AND COMPOSITIONS FOR THE TREATMENT OF CANCER” (TRASLATIONAL CANCER DRUGS PHARMA, S.L., priority 2008, published 2011)
